This is an account of results in US20250368664A1, “SURFACTANTS HAVING PEFA COMPOUNDS AND METHODS OF USE THEREOF” (Ruby Bio Inc., priority 2022, published 2025).

The data set in a line: Solubility of nonionic surfactant in SDBS. Type of data set: physicochemical. Particulars: in combination with SDBS at the stated ratio.

On to cetearyl glucoside [CGlucoside], for which the “solubility in SDBS” value was “insoluble”.
